Values joined by “and” are separate entries in the source; they are usually repeats but may differ in a detail not shown here. Equal entries are not always repeated. “Also recorded” adds a separate entry of the source.
Legend:
[1] = tested on: histamine induced gastric acid secretion; assay: Whole stomach pH measurements, ex vivo rat whole stomach preparation
Protocol: Whole stomach pH measurements. Before the experiments animals were fasted for 24 h to reduce basal acid secretion to a consistent minimum. Animals were killed with an overdose of isoflurane and an abdominal incision was made. The stomach was ligated at the duodenal and esophageal junction and excised. Then 1 ml of non buffered, isotonic saline (140 mM) was infused into the lumen of the stomach. […] The stomachs were then placed in either oxygenated HEPES-buffered Ringer solution or in the same solution containing 100 μM histamine alone or additionally 300 μM ZnCl2 (pH 7.4) and maintained at 37° C. After 1 hour the stomach contents were aspirated and the pH was recorded.

H+/K+-ATPase [2] = biological target: T1, H+/K+-ATPase (Rattus norvegicus, UniProt P09626); assay: Oral zinc supplementation in rats, histamine induced proton extrusion of isolated glands; format: in vivo
T1 construct: Individual glands were isolated using a hand-dissection technique; from tissue; host or cells: hand-dissected gastric glands of Sprague-Dawley rats (corpus/antrum)
T1 sequence (P09626 whole entry): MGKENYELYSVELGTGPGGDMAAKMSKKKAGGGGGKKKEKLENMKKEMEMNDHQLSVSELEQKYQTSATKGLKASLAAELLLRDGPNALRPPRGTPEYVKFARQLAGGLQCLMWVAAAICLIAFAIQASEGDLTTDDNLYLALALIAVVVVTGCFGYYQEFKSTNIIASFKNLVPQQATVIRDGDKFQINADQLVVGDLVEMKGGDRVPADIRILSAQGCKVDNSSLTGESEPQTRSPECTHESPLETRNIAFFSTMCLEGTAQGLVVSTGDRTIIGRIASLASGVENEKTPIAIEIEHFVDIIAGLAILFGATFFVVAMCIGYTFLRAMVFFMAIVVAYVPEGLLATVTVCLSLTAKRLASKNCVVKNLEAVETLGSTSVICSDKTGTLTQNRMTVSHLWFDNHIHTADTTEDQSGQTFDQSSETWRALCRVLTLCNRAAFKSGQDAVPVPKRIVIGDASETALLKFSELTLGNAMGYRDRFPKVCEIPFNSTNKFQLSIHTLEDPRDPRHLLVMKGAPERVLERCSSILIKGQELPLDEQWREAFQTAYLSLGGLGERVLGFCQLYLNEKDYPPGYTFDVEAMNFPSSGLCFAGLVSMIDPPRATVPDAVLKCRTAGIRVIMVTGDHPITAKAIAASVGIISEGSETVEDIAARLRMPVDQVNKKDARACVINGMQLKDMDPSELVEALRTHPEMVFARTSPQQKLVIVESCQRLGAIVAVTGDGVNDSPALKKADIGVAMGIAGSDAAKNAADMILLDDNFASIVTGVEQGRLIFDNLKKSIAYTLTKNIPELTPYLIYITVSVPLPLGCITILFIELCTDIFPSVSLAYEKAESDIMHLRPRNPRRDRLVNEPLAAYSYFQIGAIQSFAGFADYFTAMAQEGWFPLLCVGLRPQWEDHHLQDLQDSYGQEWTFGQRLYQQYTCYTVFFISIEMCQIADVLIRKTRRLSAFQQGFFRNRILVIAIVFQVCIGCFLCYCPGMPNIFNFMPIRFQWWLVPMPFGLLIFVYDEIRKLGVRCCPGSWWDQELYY
T1 sequence (P18598 whole entry partner): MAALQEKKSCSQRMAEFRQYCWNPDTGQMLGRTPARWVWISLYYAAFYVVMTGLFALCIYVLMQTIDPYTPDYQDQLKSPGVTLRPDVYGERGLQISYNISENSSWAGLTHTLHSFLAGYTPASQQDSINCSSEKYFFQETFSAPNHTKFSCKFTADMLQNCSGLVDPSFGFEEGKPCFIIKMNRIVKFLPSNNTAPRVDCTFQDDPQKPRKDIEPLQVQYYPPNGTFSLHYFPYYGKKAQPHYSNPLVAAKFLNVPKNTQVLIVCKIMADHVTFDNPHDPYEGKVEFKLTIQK
Protocol: Oral Zinc supplementation in rats. These studies were designed to modulate acid secretion by increasing dietary zinc. In these studies we used an oral ZnCl2 solution (zinc chloride in tap water). The animals had free access to food and the zinc containing water for the duration of the study. […] Animals had free access to water prior to the experiment and were fed with standard chow until 24 hours before the experiment, at which point they had free access to ZnCl2 containing water only. After the 5 days exposure period and the 24 hour fast, the animals were sacrificed and a total gastrectomy was performed on the animals. Individual gastric glands were isolated with the hand dissection technique described above.

H+, K+-ATPase = assay: Intracellular pH recovery in isolated rat fundic (F1) glands; format: cell-based; settings: for alkalinization rate of F1 glands: 100 μM secretagogue alone
Protocol: Male Sprague Dawley rats weighing 200-300 g were housed in climate and humidity controlled, light cycled rooms and fed standard chow with free access to water. Prior to experiments, animals were fasted while allowing free access to water for 18-24 hours to reduce basal acid secretion. Following isoflurane anesthesia the animals were sacrificed, an abdominal incision was made exposing the stomach. After isolating the esophagus and duodenal junctures a total gastrectomy was performed with 1-2 cm of esophagus remaining attached to the gastrectomy. We included the esophageal juncture to have a common landmark for all fundic isolations. While holding the esophagus with forceps approximately 3 mm of fundus was removed with 5 mm of the intact esophagus. The removed fundic tissue was placed in ice cold HEPES-buffered Ringer-solution (pH adjusted to 7.4 at 4° C.) and transferred to the stage of a dissection microscope. The fundic glands were visualized under the microscope at 50× magnification. Glands adjacent to the esophageal junction were hand dissected. Following isolation, individual glands were adhered to cover slips that had been pretreated with the biological adhesive Cell-Tak (Cell-Tak™ cell adhesive, BD Biosciences; Bedford, Mass.) […] Molecular Probes, OR USA)) for 15 minutes. […] Measurements were performed in the epifluorescence mode with 60×/0.80 and 40×/0.90 objectives. […] Data points were acquired every 15 s. […] Acid extrusion was monitored in the absence of bicarbonate. […] All data are summarized as mean±S.E. Significance was determined using the one-way ANOVA test with p<0.05 considered to be statistically significant. All chemicals used were obtained from Sigma and Molecular Probes.

H+/K+-ATPase [3] = biological target: T1, H+/K+-ATPase; assay: Intracellular pH recovery in rat corpus glands (comparison with fundus); format: cell-based
Protocol: Molecular Probes, OR USA)) for 15 minutes. […] Measurements were performed in the epifluorescence mode with 60×/0.80 and 40×/0.90 objectives. […] Data points were acquired every 15 s. […] Acid extrusion was monitored in the absence of bicarbonate. […] All data are summarized as mean±S.E. Significance was determined using the one-way ANOVA test with p<0.05 considered to be statistically significant. All chemicals used were obtained from Sigma and Molecular Probes.

H+/K+-ATPase [4] = biological target: T1, H+/K+-ATPase; assay: Intracellular pH recovery (proton extrusion) in isolated rat gastric glands, NH4Cl prepulse, BCECF; format: cell-based
Protocol: Animals. Sprague-Dawley rats 150-250 g (Charles River Laboratory)) were housed in climate- and humidity-controlled, light-cycled rooms, fed standard chow with free access to water, and handled according to the humane practices of animal care established by the Yale Animal Care. Prior to experiments, animals were fasted for 18-24 hours with free access to water.
(§1) Isolation of rat and human gastric Glands. Following removal of the stomach, the stomach was opened longitudinally and the corpus and antrum isolated and sliced into 0.5 cm square sections, and washed with cold Ringer solution to remove residual food particles. The tissues were transferred to the stage of a dissecting microscope. Individual glands were isolated using a hand-dissection technique as described previously^36. Following isolation, individual isolated glands were allowed to adhere to cover slips that had been pre-coated with Cell-Tak (Collaborative Research, Bedford, Mass.) and were transferred to the stage of an inverted microscope.
(§2) Digital imaging for intracellular pH. Isolated gastric glands were incubated in a HEPES-buffered Ringer's solution containing either 10 μmol of the pH-sensitive dye BCECF-AM (2′,7′)-bis-(2-carboxyethyl)-5-(and-6)-carboxy-fluorescin, aceto-methyl ester (Molecular Probes, Eugene, Oreg.) for 10 minutes as described previously^37-39. […] A minimum of 8 cells or regions was selected per gland.
(§3) Proton extrusion by individual parietal cells was monitored by observing recovery of pHi after acid loading the cells with Na^+ free HEPES solution containing 20 mM NH4Cl.
(§4) The recovery rates are expressed as the ΔpH/min, and were calculated over the pH range of 6.5-6.8.

H+/K+-ATPase [5] = biological target: H+/K+-ATPase (Homo sapiens, UniProt P20648); assay: Intracellular pH recovery (proton extrusion) in isolated human gastric glands; format: cell-based; settings: histamine stimulation
H+/K+-ATPase (Homo sapiens, UniProt P20648), sequence (P20648 whole entry): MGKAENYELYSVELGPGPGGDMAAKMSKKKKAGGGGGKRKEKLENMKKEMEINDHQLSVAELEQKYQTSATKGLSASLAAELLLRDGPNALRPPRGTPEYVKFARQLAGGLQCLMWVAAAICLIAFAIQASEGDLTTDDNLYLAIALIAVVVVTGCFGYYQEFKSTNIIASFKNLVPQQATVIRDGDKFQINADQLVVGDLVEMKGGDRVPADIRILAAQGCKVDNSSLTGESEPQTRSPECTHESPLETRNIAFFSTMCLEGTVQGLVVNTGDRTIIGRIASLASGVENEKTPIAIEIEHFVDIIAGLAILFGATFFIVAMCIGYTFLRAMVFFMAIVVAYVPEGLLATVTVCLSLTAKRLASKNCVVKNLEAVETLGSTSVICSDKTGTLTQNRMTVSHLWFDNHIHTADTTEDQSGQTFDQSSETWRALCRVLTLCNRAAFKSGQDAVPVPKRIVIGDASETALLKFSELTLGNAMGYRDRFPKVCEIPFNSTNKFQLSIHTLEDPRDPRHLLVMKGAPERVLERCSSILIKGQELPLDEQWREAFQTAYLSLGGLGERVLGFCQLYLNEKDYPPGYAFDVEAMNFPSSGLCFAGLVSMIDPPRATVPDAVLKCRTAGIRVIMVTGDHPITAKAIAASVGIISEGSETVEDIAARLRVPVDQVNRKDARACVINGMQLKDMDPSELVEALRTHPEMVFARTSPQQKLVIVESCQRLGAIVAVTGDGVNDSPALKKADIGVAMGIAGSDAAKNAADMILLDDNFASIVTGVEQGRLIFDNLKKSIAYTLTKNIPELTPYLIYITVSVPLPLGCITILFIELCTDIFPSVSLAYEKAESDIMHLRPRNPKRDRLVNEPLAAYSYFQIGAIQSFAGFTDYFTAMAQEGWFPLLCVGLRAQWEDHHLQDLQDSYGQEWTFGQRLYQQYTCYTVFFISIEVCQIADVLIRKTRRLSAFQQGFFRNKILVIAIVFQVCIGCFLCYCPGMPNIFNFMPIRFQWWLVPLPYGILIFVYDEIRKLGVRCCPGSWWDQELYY
H+/K+-ATPase (Homo sapiens, UniProt P20648), sequence (P51164 whole entry partner): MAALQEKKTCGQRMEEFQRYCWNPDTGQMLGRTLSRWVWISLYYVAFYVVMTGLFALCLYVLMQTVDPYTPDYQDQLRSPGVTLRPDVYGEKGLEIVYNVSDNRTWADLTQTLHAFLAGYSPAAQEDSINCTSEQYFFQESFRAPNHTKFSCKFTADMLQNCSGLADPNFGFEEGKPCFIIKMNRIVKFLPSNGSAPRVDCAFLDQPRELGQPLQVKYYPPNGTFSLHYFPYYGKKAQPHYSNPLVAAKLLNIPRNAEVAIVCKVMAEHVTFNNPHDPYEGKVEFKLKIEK
Description: as §1, §2, §3, §4

With `NCCc1c[nH]cn1` [histamine] the “mean luminal pH” value ([1]; 100 μM histamine, 1 hour) was 3.15±0.27, the “recovery rate (proton extrusion) of histamine stimulated parietal cells” value (H+/K+-ATPase [2]; control group, histamine alone, no zinc) was 0.051±0.004 and the “effect of secretagogue on F1 zone glands in comparison to controls, in words” value (H+, K+-ATPase; 100 μM) was “no effect”. The “alkalinization rate of F1 glands” value (H+, K+-ATPase) was 0.04±0.0079 ΔpHi/min and 0.042±0.007 ΔpHi/min and the “histamine stimulated proton extrusion rate in corpus gland” value (H+/K+-ATPase [3]; 100 μM histamine) was 0.056±0.008 ΔpHi/min.
For `Cc1cccc(C)c1CNc1cc(C(=O)NCCO)cn2c(C)c(C)nc12` [AZD0865], the “inhibition of acid secretion in F1 (fundic) glands, in words” value (H+, K+-ATPase; omeprazole 200 μM with histamine 100 μM, AZD0865 10 μM) was “does not completely inhibit proton extrusion” and the “inhibition of acid secretion in corpus glands, in words” value (H+/K+-ATPase [3]; omeprazole 200 μM, AZD0865 10 μM) was “effectively inhibits acid secretion; also recorded: strong inhibition”.
`COc1ccc2[nH]c([S+]([O-])Cc3ncc(C)c(OC)c3C)nc2c1` (centres unmarked) [omeprazole] was tested, and the “alkalinization rate of fundic glands” value (H+, K+-ATPase; 200 μM omeprazole and 100 μM histamine) was 0.045±0.002 ΔpHi/min.
`[Cl-].[Cl-].[Zn+2]` [ZnCl2, zinc chloride] was tested, and the “inhibition of proton extrusion compared to the histamine induced rate” value (H+/K+-ATPase [4]; 300 μM ZnCl2, 100 μM histamine) was 98%, the “effect on histamine induced proton efflux from gastric glands” value (H+/K+-ATPase [4]; 300 umol ZnCl2, histamine 100 μM) was “blocked” and the “onset of inhibition of histamine induced acid secretion” value (H+/K+-ATPase [4]; ZnCl2 300 μM added to superfusion bath, histamine 100 μM) was “abolished after a few seconds”. For the same molecule, the “effect on histamine stimulated proton efflux in human gastric glands” value (H+/K+-ATPase [5]) was “abolished”, the “mean luminal pH” value ([1]; 100 μM histamine and 300 μM ZnCl2, 1 hour) was 4.54±0.065 and the “whole stomach pH in words” value ([1]; 100 μmol histamine and 300 μmol ZnCl2) was “higher pH than those in HEPES-buffered Ringer solution and histamine”. The “histamine induced proton extrusion rate after oral ZnCl2” value (H+/K+-ATPase [2]; 0.5 mg/kg/d ZnCl2 in drinking water for 5 days) was 0.034±0.0036 and the “histamine induced proton extrusion rate after oral ZnCl2” value (H+/K+-ATPase [2]; 150 mg/kg/d ZnCl2 in drinking water for 5 days) was 0.022±0.0045.
With `CC(=O)OCC[N+](C)(C)C` [acetylcholine] the “alkalinization rate of F1 glands” value (H+, K+-ATPase) was 0.075±0.0015 ΔpHi/min.

— patent US11510894B2, “Fast acting inhibitor of gastric acid secretion” (priority 2006, dated 2022)
